These results are taken from patent US5013546A, “Methods for modulating antibody production in treating patients with AIDS, ARC and other diseases” (Imreg, Inc., priority 1990, dated 1991).

Experiment [1] relates to immunoglobulin-producing cells (plaque forming cells) in pokeweed mitogen-exposed PBLs. Description: RHPFC assay, PWM-stimulated PBLs of a normal subject cultured 6 days with amplifier. Type of experiment: cell-based, human. To be noted: averaged data. The method, then:
In order to ascertain whether modulation of B-cell response is appropriate in a particular subject, and to titrate administration of amplifier appropriately for that subject, it is desirable to have a method for assaying the subject's immunoglobulin response. The method described below cultures mitogen-exposed cells in the presence and absence of added amplifier. Then the formation of plaque forming cells (PFCs) is assayed by a reverse hemolytic assay to determine whether and to what extent amplifier modulates formation of PFCs. A dose-dependent amplifier modulation of PFC formation is observed. The PFC assay described hereinafter is a modification of a conventional technique; it is believed that PFC assays have not hitherto been utilized to assess effects of the immunomodulators described herein.
Peripheral blood cell populations (hereinafter PBLs) from test subjects are prepared to isolate mononuclear cells, using conventional methods. The PBLs are adjusted to 10^6 cells/ml in RPM-1640 medium with 25 mM HEPES and L-glutamine (Whittaker Bioproducts), which has been supplemented with 10% heat-inactivated defined fetal bovine serum (Hy-Clone Labs.), 2% PSN Antibiotic (GIBCO Labs., Grand Island, N.Y.) (100×), and 1% extra L-glutamine (GIBCO Labs.) (100×). The resulting PBL mixture is set aside in an ice bucket (4° C.). […]

The test system of experiment [2] is immunoglobulin-producing cells (plaque forming cells) in PWM-activated PBLs. Description: Modified RHPFC assay, amplifier added after B cells were potentiated (7th day). Type of experiment: cell-based, human. To be noted: amplifier added after potentiation. The method, then: The foregoing protocol 1 was then altered to test the in vitro effect of adding amplifiers Beta-1.0 or Beta-1.11 to the culture after B cells had already been potentiated (differentiated). Therefore, no amplifier was mixed with the PWM-activated cells at the outset, as in Example 1. Instead, at the stage where 1.12% agarose and Protein A-SRBC reagent are added (here, the 7th day), 25 ul of different amplifier dilutions is also added to the various replicates. The protocol was otherwise the same.
The procedure of Example 6 was repeated with the modified protocol just described.

Experiment [3] concerns patients with AIDS or ARC with elevated IgG and IgA. Description: AIDS/ARC patients, effect of amplifier on serum Ig levels. Type of experiment: in vivo, human. To be noted: 50 pg biweekly, protocol of Example 10. The method, then:
A group of 14 patients with AIDS or ARC were treated biweekly with a standard dosage of IMREG-1 (Beta-1.0), until six doses were given. All 14 initially had elevated IgG production and 13 also had elevated IgA production.
Data was averaged for the 14 high-IgG and 13 high-IgA patients.
A group of patients with AIDS or ARC are treated biweekly with 50 pg of ZB-4, according to the protocol of Example 10.
A group of patients with AIDS or ARC are treated biweekly with 50 pg of Beta-1.11, according to the protocol of Example 10.
A group of patients with AIDS or ARC are treated biweekly with 50 pg of Beta-1.12, according to the protocol of Example 10.

Experiment [4] concerns patient with AIDS or ARC, excessive immunoglobulin production. Briefly: Titration of amplifier dosage, AIDS or ARC patient with elevated serum IgG. Type of experiment: in vivo, human. To be noted: 20 to 80 pg intradermal biweekly for eight weeks, 80 kg patient; before greater than 1400 mg/dl. The method, then: A patient suffers from AIDS or ARC, and they have an elevated serum immunoglobulin (IgG) level (greater than 1400 mg/dl), indicative to the attending physician of excessive immunoglobulin production. The physician considers it therapeutically desirable to lower the patient's level of immunoglobulin production.
The physician assays the patient's immunoglobulin response by the protocol of Examples 1-4, or alternative as in Example using ZB-4 (Beta-1.11). The patient weighs 80 kg. The physician therefore administers intradermal injections of 20 to 80 pg of ZB-4 (0.25 to 1 pg/kg of body weight) in sterile saline, biweekly, for eight weeks, and then retests. (The appropriate amount is determined by trial and error, and is subject to the physician's discretion. It is believed that 0.25 pg/kg is an appropriate starting point for such trial and error determination in the case of excessive Ig production.)

Experiment [5] relates to patient with common variable immunodeficiency, insufficient immunoglobulin production. Briefly: Titration of amplifier dosage, patient with common variable immunodeficiency. It counts as in vivo, human. Particulars: 20 to 80 pg intradermal biweekly for eight weeks, 80 kg patient; before 350 ml/dl. The method, then: A patient suffers from common variable immunodeficiency, and they have an lowered serum immunoglobulin (IgG) level ([…]), indicative to the attending physician of insufficient immunoglobulin production. The physician considers it therapeutically desirable to raise the patient's level of immunoglobulin production.
The patient weighs 80 kg. The physician therefore administers intradermal injections of 20 to 80 pg of ZB-4 (0.25 to 1 pg/kg of body weight) in sterile saline, biweekly, for eight weeks, and then retests. (The appropriate amount is determined by trial and error, and is subject to the physician's discretion. It is believed that 1 pg/kg is an appropriate starting point for such trial and error determination in the case of insufficient Ig production.)

For experiment [6] the following is noted: per 1 fg of the peptide; cited from earlier work.

Tyr-Gly [ZB-4]: the “maximum PFC factor relative to control” value in experiment [1] (at 100 to 150 pM) was “from about half again to double the control PFC factor”. The “minimum PFC factor relative to control” value in experiment [1] (between 1 and 10 pM) is “from about a quarter to a half the control PFC factor”. Further, in experiment [2], the “concentration at maximum PFC factor” value is 300 to 400 pM, the “maximum PFC factor relative to control” value is “slightly less than the control” and the “minimum PFC factor” value is “approximately 35 % of the control PFC factor”. Moreover, the “effect on Ig levels” value in experiment [3] is “Substantially the same results are observed as were observed in Example 10”. Also, in experiment [4], the “serum immunoglobulin (IgG) level after treatment” value is 1280 mg/dL. For the same substance, in experiment [5], the “serum immunoglobulin level (IgG) after treatment” value came to 710 mg/dL. Besides, the “amount of Beta-1.0 with approximately the same immunological activity as 1 fg” value in experiment [6] is listed as 5-10 fg.
As for Tyr-Gly-Gly [Beta-1.12], the “effect on Ig levels” value in experiment [3] was “Substantially the same results are observed as were observed in Example 10”. In addition, the “amount of Beta-1.0 with approximately the same immunological activity as 1 fg” value in experiment [6] is recorded as 5-10 fg.
